From PubChem BioAssay (NCI)
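In this assay, cells in 96-well plates receive the compound at five concentrations for 48 hours. Endpoints are linearly interpolated between the surrounding concentrations. TGI: concentration producing complete growth inhibition.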

Tests used:
Assay in all cases: DTP human tumour cell line panel, 48 h
[1] = test system: MDA-MB-435
[2] = test system: SR leukemia
[3] = test system: A498 renal
[4] = test system: SNB-19 CNS
[5] = test system: MCF7 breast
[6] = test system: KM12 colon
[7] = test system: NCI-H23 lung
[8] = test system: SF-268 CNS
[9] = test system: NCI-H226 lung
[10] = test system: OVCAR-5 ovarian
[11] = test system: BT-549 breast
[12] = test system: SF-539 CNS
[13] = test system: CAKI-1 renal
[14] = test system: HCC-2998 colon
[15] = test system: MALME-3M melanoma
[16] = test system: UACC-257 melanoma
[17] = test system: IGROV1 ovarian
[18] = test system: ACHN renal
[19] = test system: HCT-116 colon
[20] = test system: MOLT-4 leukemia
[21] = test system: HS 578T breast
[22] = test system: NCI/ADR-RES ovarian
[23] = test system: UO-31 renal
[24] = test system: HCT-15 colon
[25] = test system: HOP-62 NSCLC
[26] = test system: RPMI-8226 leukemia
[27] = test system: COLO 205 colon
[28] = test system: K-562 leukemia
[29] = test system: SNB-75 CNS
[30] = test system: HL-60(TB) leukemia
[31] = test system: T-47D breast
[32] = test system: CCRF-CEM leukemia
[33] = test system: SF-295 CNS
[34] = test system: SK-MEL-2 melanoma
[35] = test system: 786-0 renal
[36] = test system: OVCAR-4 ovarian
[37] = test system: SK-MEL-28 melanoma
[38] = test system: NCI-H460 lung
[39] = test system: TK-10 renal
[40] = test system: NCI-H522 lung
[41] = test system: M14 melanoma
[42] = test system: A549 NSCLC
[43] = test system: U251 CNS
[44] = test system: SK-MEL-5 melanoma
[45] = test system: HOP-92 NSCLC
[46] = test system: SK-OV-3 ovarian
[47] = test system: SW-620 colon
[48] = test system: RXF 393 renal
[49] = test system: UACC-62 melanoma

SMILES | TGI [1] [µM] | TGI [2] [µM] | TGI [5] [µM] | TGI [7] [µM] | TGI [8] [µM] | TGI [10] [µM] | TGI [13] [µM] | TGI [15] [µM] | TGI [17] [µM] | TGI [18] [µM] | TGI [20] [µM] | TGI [22] [µM] | TGI [25] [µM] | TGI [26] [µM] | TGI [27] [µM] | TGI [28] [µM] | TGI [29] [µM] | TGI [30] [µM] | TGI [31] [µM] | TGI [32] [µM] | further results
Cc1c(C(=O)OCc2ccccc2)[n+](=O)c2cc(F)c(F)cc2n1[O-] | 3.94 | 3.19 | 6.32 | 6.27 | 4.53 | > 100 | 3.92 | 4.48 | 3.3 | 3.85 | 5.5 | > 100 | > 100 | > 100 | 9.62 | > 100 | 4.68 | 3.53 | 4.86 | > 100 | TGI [3]: 3.12 µM; TGI [4]: 3.87 µM; TGI [6]: 39.4 µM; TGI [9]: 6.74 µM; TGI [11]: 3.62 µM; TGI [12]: 5.75 µM; TGI [14]: 4.68 µM; TGI [16]: 4 µM; TGI [19]: > 100 µM; TGI [21]: 2.97 µM; TGI [23]: 3.36 µM; TGI [24]: > 100 µM; TGI [33]: 4.06 µM; TGI [34]: 3.51 µM; TGI [35]: > 100 µM; TGI [36]: 3.53 µM; TGI [37]: 4.07 µM; TGI [38]: 6.6 µM; TGI [39]: 37.7 µM; TGI [40]: 3.96 µM
CCN1C(=O)CS/C1=N/NC(=O)C(O)(c1ccccc1)C1C=CC=CC1 (stereo not drawn) | > 10 | > 10 | > 10 | > 10 | > 10 | > 10 | > 10 | > 10 | > 10 | > 10 | > 10 | > 10 | > 10 | > 10 | > 10 | > 10 | > 10 | > 10 | > 10 | > 10 | TGI [41]: > 10 µM; TGI [42]: > 10 µM; TGI [43]: > 10 µM; TGI [44]: > 10 µM; TGI [45]: > 10 µM; TGI [46]: > 10 µM; TGI [47]: > 10 µM; TGI [48]: > 10 µM; TGI [34]: > 10 µM; TGI [36]: > 10 µM; TGI [37]: > 10 µM; TGI [49]: > 10 µM; TGI [38]: > 10 µM
